Test results published in the NIST ThermoML archive (doi:10.1016/j.fluid.2011.02.020).

Test: mn = molality of the nth substance listed, in mol/kg
Conditions: 298.15 K, 101 kPa, Liquid, Vibrating tube method

CCCCCCC(F)(F)C(F)(F)C(F)(F)C(F)(F)F [1,1,1,2,2,3,3,4,4-nonafluorodecane] + CCCCCCCC
Conditions | molar volume [m3/mol]
m1 = 0.0465 | 0.0002496
m1 = 0.0608 | 0.0002501
m1 = 0.0703 | 0.0002498
m1 = 0.1003 | 0.0002498
m1 = 0.1403 | 0.0002498
m1 = 0.1663 | 0.0002493
m1 = 0.1689 | 0.0002492
m1 = 0.2127 | 0.0002497

CCCCCCCCC(F)(F)C(F)(F)C(F)(F)C(F)(F)F [1,1,1,2,2,3,3,4,4-nonafluorododecane] + CCCCCCCC
Conditions | molar volume [m3/mol]
m1 = 0.0685 | 0.0002816
m1 = 0.0996 | 0.0002815
m1 = 0.1061 | 0.0002817
m1 = 0.1259 | 0.0002815
m1 = 0.1271 | 0.0002817
m1 = 0.1522 | 0.0002818
m1 = 0.1885 | 0.0002815
m1 = 0.2032 | 0.0002815

CCCCCC(F)(F)C(F)(F)C(F)(F)C(F)(F)F [1,1,1,2,2,3,3,4,4-nonafluorononane] + CCCCCCCC
Conditions | molar volume [m3/mol]
m1 = 0.0527 | 0.0002338
m1 = 0.0601 | 0.0002337
m1 = 0.0947 | 0.0002337
m1 = 0.1337 | 0.0002337
m1 = 0.1437 | 0.0002336
m1 = 0.1755 | 0.0002334
m1 = 0.1914 | 0.0002334
m1 = 0.2141 | 0.0002334

FC(F)(F)C(F)(F)C(F)(F)C(F)(F)C(F)(F)C(F)(F)C(F)(F)C(F)(F)C(F)(F)F [eicosafluorononane] + CCCCCCCC
Conditions | molar volume [m3/mol]
m1 = 0.0532 | 0.0003069
m1 = 0.0565 | 0.000307
m1 = 0.0714 | 0.0003073
m1 = 0.0832 | 0.0003067
m1 = 0.1105 | 0.000307
m1 = 0.1219 | 0.0003062
m1 = 0.1488 | 0.0003058
m1 = 0.1513 | 0.0003065

FC(F)(F)C(F)(F)C(F)(F)C(F)(F)C(F)(F)C(F)(F)C(F)(F)C(F)(F)F [octadecafluorooctane] + CCCCCCCC
Conditions | molar volume [m3/mol]
m1 = 0.0362 | 0.0002822
m1 = 0.0617 | 0.0002816
m1 = 0.0923 | 0.0002798
m1 = 0.1157 | 0.0002803
m1 = 0.1445 | 0.0002792
m1 = 0.1585 | 0.0002786
m1 = 0.1808 | 0.0002784
m1 = 0.2115 | 0.0002788

FC(F)(F)C(F)(F)C(F)(F)C(F)(F)C(F)(F)C(F)(F)F [perfluorohexane] + CCCCCCCC
Conditions | molar volume [m3/mol]
m1 = 0.088 | 0.0002294
m1 = 0.1035 | 0.0002312
m1 = 0.131 | 0.0002293
m1 = 0.1624 | 0.0002278
m1 = 0.1833 | 0.0002292
m1 = 0.2156 | 0.0002299
m1 = 0.2594 | 0.0002276
m1 = 0.268 | 0.0002308
m1 = 0.304 | 0.0002288
m1 = 0.3424 | 0.0002285
m1 = 0.3621 | 0.00023
m1 = 0.4051 | 0.0002288
